Experimental findings from patent US11046686B2, “Thiadiazole IRAK4 compounds” (Gilead Sciences, Inc., priority 2018, dated 2021) are described below.

Molecules are shown by their SMILES.

One assay deals with TNFα. Description: IRAK4 Monocyte TNFα Cell Based Assay. Set-up: species or system human. The settings on record: Homo sapiens, Monocyte, human monocytes; second part of Table 2, compounds 33-343; unit inferred; read-out: EC50 MONO TNF HTRF. The procedure, abridged:
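Human monocytes (5,000/well) pretreated with compound 1 h at 37 °C (0.1% DMSO final), then stimulated with 50 pg/ml LPS for 4 h. Secreted TNFα measured by TR-FRET two-antibody detection after overnight incubation at room temperature; % control relative to unstimulated and LPS-stimulated wells.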
Regarding `CC(C)Nc1cc(-c2ccc3cc(C#N)cnn23)ncc1-c1nnc(N2CCC(F)(F)CC2)s1` [Example 294, 7-(5-(5-(4,4-difluoropiperidin-1-yl)-1,3,4-thiadiazol-2-yl)-4-(isopropylamino)pyridin-2-yl)pyrrolo[1,2-b]pyridazine-3-carbonitrile], the EC50 is 1000 nM.

Staying with this assay, now noted: human monocytes; second part of Table 2, compounds 33-343; unit inferred; read-out: EC50 MONO TNF HTRF.
For `CC(C)Nc1cc(-c2ccc3cc(C#N)cnn23)ncc1-c1nnc(N2CCC(O)(CF)CC2)s1` [Example 189], the EC50 stood at 16.3 nM.
Still for that read-out and setting: to `CC(C)Nc1cc(-c2ccc3cc(C#N)cnn23)ncc1-c1nnc([C@H]2C[C@@](C)(O)C2)s1` [Example 199, 7-(5-(5-((1s,3s)-3-hydroxy-3-methylcyclobutyl)-1,3,4-thiadiazol-2-yl)-4-(isopropylamino)pyridin-2-yl)pyrrolo[1,2-b]pyridazine-3-carbonitrile] belongs 38.3 nM.
Still for that read-out and setting: next, `CC(=O)N[C@H]1C[C@H](c2nnc(-c3cnc(-c4ccc5cc(C#N)cnn45)cc3NC3CCOCC3)s2)C1` [Example 201]: 34.9 nM; `CC(=O)N[C@H]1C[C@H](c2nnc(-c3cnc(-c4ccc5cc(C#N)cnn45)cc3NC3COC3)s2)C1` [Example 202]: 166 nM.
The same measure, in the same setting: next, `CC(=O)N[C@@H]1C[C@H]2COC[C@@H](C1)N2c1nnc(-c2cnc(-c3ccc4cc(C#N)cnn34)cc2NC(C)C)s1` [Example 209, N-((1R,5S,7r)-9-(5-(6-(3-cyanopyrrolo[1,2-b]pyridazin-7-yl)-4-(isopropylamino)pyridin-3-yl)-1,3,4-thiadiazol-2-yl)-3-oxa-9-azabicyclo[3.3.1]nonan-7-yl)acetamide]: 9.6 nM; `CC1(Nc2cc(-c3ccc4cc(C#N)cnn34)ncc2-c2nnc(N3C[C@H]4CC[C@@H](C3)[C@@H]4NC(=O)C(C)(C)O)s2)COC1` [Example 210, N-((1R,5S,8s)-3-(5-(6-(3-cyanopyrrolo[1,2-b]pyridazin-7-yl)-4-((3-methyloxetan-3-yl)amino)pyridin-3-yl)-1,3,4-thiadiazol-2-yl)-3-azabicyclo[3.2.1]octan-8-yl)-2-hydroxy-2-methylpropanamide]: 2.8 nM; `CC(C)Nc1cc(-c2ccc3cc(C#N)cnn23)ncc1-c1nnc(C(=O)N[C@H]2C[C@H](O)C2)s1` [Example 213, 5-(6-(3-cyanopyrrolo[1,2-b]pyridazin-7-yl)-4-(isopropylamino)pyridin-3-yl)-N-((1r,3r)-3-hydroxycyclobutyl)-1,3,4-thiadiazole-2-carboxamide]: 1830 nM.
Take `CC(C)Nc1cc(-c2ccc3cc(C#N)cnn23)ncc1-c1nnc(C(=O)N[C@H]2C[C@@H](O)C2)s1` [Example 215, 5-(6-(3-cyanopyrrolo[1,2-b]pyridazin-7-yl)-4-(isopropylamino)pyridin-3-yl)-N-((1s,3s)-3-hydroxycyclobutyl)-1,3,4-thiadiazole-2-carboxamide]: the EC50 came to 3100 nM.
Regarding `CC(C)Nc1cc(-c2ccc3cc(C#N)cnn23)ncc1-c1nnc(C(=O)N2CC[C@@H](CO)C2)s1` [Example 216], the EC50 was determined as 18.1 nM.
Still for that read-out and setting: next, `CC(C)Nc1cc(-c2ccc3cc(C#N)cnn23)ncc1-c1nnc(C(=O)N2CCC[C@H]2CO)s1` [Example 217]: 11.1 nM; `CC(C)Nc1cc(-c2ccc3cc(C#N)cnn23)ncc1-c1nnc(C(=O)N[C@H]2C[C@@](C)(O)C2)s1` [Example 218, 5-(6-(3-cyanopyrrolo[1,2-b]pyridazin-7-yl)-4-(isopropylamino)pyridin-3-yl)-N-((1s,3s)-3-hydroxy-3-methylcyclobutyl)-1,3,4-thiadiazole-2-carboxamide]: 858 nM.
Take `CC(C)Nc1cc(-c2ccc3cc(C#N)cnn23)ncc1-c1nnc(C(=O)N[C@H]2C[C@](C)(O)C2)s1` [Example 219]: the EC50 turned out to be 2070 nM.
Still for that read-out and setting: to `CC(C)Nc1cc(-c2ccc3cc(C#N)cnn23)ncc1-c1nnc(C(=O)N[C@H]2CC[C@H](O)CC2)s1` [Example 220, 5-(6-(3-cyanopyrrolo[1,2-b]pyridazin-7-yl)-4-(isopropylamino)pyridin-3-yl)-N-((1r,4r)-4-hydroxycyclohexyl)-1,3,4-thiadiazole-2-carboxamide] belongs 131 nM; to `CC(C)Nc1cc(-c2ccc3cc(C#N)cnn23)ncc1-c1nnc(C(=O)N[C@H]2CC[C@@H](O)CC2)s1` [Example 224, 5-(6-(3-cyanopyrrolo[1,2-b]pyridazin-7-yl)-4-(isopropylamino)pyridin-3-yl)-N-((1s,4s)-4-hydroxycyclohexyl)-1,3,4-thiadiazole-2-carboxamide], 4770 nM.
For the compound `CC(=O)NC1CCC(c2nnc(-c3cnc(-c4ccc5cc(C#N)cnn45)cc3NC3CCC(c4cnn(C(F)F)c4)CC3)s2)CC1` [Example 227, N-((1R,4r)-4-(5-(6-(3-cyanopyrrolo[1,2-b]pyridazin-7-yl)-4-(((1r,4R)-4-(1-(difluoromethyl)-1H-pyrazol-4-yl)cyclohexyl)amino)pyridin-3-yl)-1,3,4-thiadiazol-2-yl)cyclohexyl)acetamide], the EC50 came out at 14.4 nM.
On the same count and under the same terms, to `CNc1cc(-c2ccc3cc(C#N)cnn23)ncc1-c1nnc([C@H]2C[C@H](NC(C)=O)C2)s1` [Example 282, N-((1r,3r)-3-(5-(6-(3-cyanopyrrolo[1,2-b]pyridazin-7-yl)-4-(methylamino)pyridin-3-yl)-1,3,4-thiadiazol-2-yl)cyclobutyl)acetamide] belongs 22.4 nM; to `CC(=O)NC1CC2CC1CC2c1nnc(-c2cnc(-c3ccc4cc(C#N)cnn34)cc2NC(C)C)s1` (stereo not drawn) [Example 285, N-(5-(5-(6-(3-cyanopyrrolo[1,2-b]pyridazin-7-yl)-4-(isopropylamino)pyridin-3-yl)-1,3,4-thiadiazol-2-y)bicyclo[2.2.1]heptan-2-yl)acetamide], 68 nM.
The same measure, in the same setting: to `CC(C)Nc1cc(-c2ccc3cc(C#N)cnn23)ncc1-c1nnc(N2CCC(C)(O)CC2)s1` [Example 287, 7-(5-(5-(4-hydroxy-4-methylpiperidin-l-yl)-1,3,4-thiadiazol-2-yl)-4-(isopropylamino)pyridin-2-yl)pyrrolo[1,2-b]pyridazine-3-carbonitrile] belongs 9.8 nM; to `CC(=O)NC[C@H]1C[C@@H](c2nnc(-c3cnc(-c4ccc5cc(C#N)cnn45)cc3NC(C)C)s2)C1` [Example 289, N-(((1s,3s)-3-(5-(6-(3-cyanopyrrolo[1,2-b]pyridazin-7-yl)-4-(isopropylamino)pyridin-3-yl)-1,3,4-thiadiazol-2-yl)cyclobutyl)methyl)acetamide], 21.4 nM; to `CC(=O)NC[C@H]1C[C@H](c2nnc(-c3cnc(-c4ccc5cc(C#N)cnn45)cc3NC(C)C)s2)C1` [Example 290, N-(((1r,3r)-3-(5-(6-(3-cyanopyrrolo[1,2-b]pyridazin-7-yl)-4-(isopropylamino)pyridin-3-yl)-1,3,4-thiadiazol-2-yl)cyclobutyl)methyl)acetamide], 16.2 nM.
Same read-out and setting: next, `CNc1cc(-c2ccc3cc(C#N)cnn23)ncc1-c1nnc(N2C[C@H]3CC[C@@H](C2)[C@@H]3NC(C)=O)s1` [Example 292, N-((1R,5S,8s)-3-(5-(6-(3-cyanopyrrolo[1,2-b]pyridazin-7-yl)-4-(methylamino)pyridin-3-yl)-1,3,4-thiadiazol-2-yl)-3-azabicyclo[3.2.1]octan-8-yl)acetamide]: 6.7 nM; `CC(=O)N(C)[C@@H]1[C@@H]2CC[C@H]1CN(c1nnc(-c3cnc(-c4ccc5cc(C#N)cnn45)cc3NC(C)C)s1)C2` [Example 300]: 5.3 nM; `CC(C)Nc1cc(-c2ccc3cc(C#N)cnn23)ncc1-c1nnc(N2C[C@H]3CC[C@@H](C2)[C@@H]3N2CCOC2=O)s1` [Example 301, 7-(4-(isopropylamino)-5-(5-((1R,5S,8s)-8-(2-oxooxazolidin-3-yl)-3-azabicyclo[3.2.1]octan-3-yl)-1,3,4-thiadiazol-2-yl)pyridin-2-yl)pyrrolo[1,2-b]pyridazine-3-carbonitrile]: 4.9 nM.
As for `CC(=O)N1C[C@@H]2C[C@H]1CN2c1nnc(-c2cnc(-c3ccc4cc(C#N)cnn34)cc2NC(C)C)s1` [Example 302, 7-(5-(5-((1S,4S)-5-acety1-2,5-diazabicyclo[2.2.1]heptan-2-yl)-1,3,4-thiadiazol-2-yl)-4-(isopropylamino)pyridin-2-yl)pyrrolo[1,2-b]pyridazine-3-carbonitrile], the EC50 turned out to be 5.3 nM.
The same measure, in the same setting: to `CC(C)Nc1cc(-c2ccc3cc(C#N)cnn23)ncc1-c1nnc(N2CCN(C3COC3)CC2)s1` [Example 304] belongs 9.8 nM; to `CC(C)Nc1cc(-c2ccc3cc(C#N)cnn23)ncc1-c1nnc(N2C[C@H]3CC[C@@H](C2)[C@@H]3Nc2ncccn2)s1` [Example 308, 7-(4-(isopropylamino)-5-(5-((1R,5S,8s)-8-(pyrimidin-2-ylamino)-3-azabicyclo[3.2.1]octan-3-yl)-1,3,4-thiadiazol-2-yl)pyridin-2-yl)pyrrolo[1,2-b]pyridazine-3-carbonitrile], 18.4 nM; to `CC(C)Nc1cc(-c2ccc3cc(C#N)cnn23)ncc1-c1nnc(N2C[C@H]3CC[C@@H](C2)[C@@H]3Nc2ncccc2F)s1` [Example 309], 687 nM.
Same read-out and setting: to `CC(C)(O)C(=O)N[C@H]1CC[C@@H](c2nnc(-c3cnc(-c4ccc5cc(C#N)cnn45)cc3NC3COC3)s2)CC1` [Example 311, N-((1s,4s)-4-(5-(6-(3-cyanopyrrolo[1,2-b]pyridazin-7-yl)-4-(oxetan-3-ylamino)pyridin-3-yl)-1,3,4-thiadiazol-2-yl)cyclohexyl)-2-hydroxy-2-methylpropanamide] belongs 22.6 nM; to `CC(C)Nc1cc(-c2ccc3cc(C#N)cnn23)ncc1-c1nnc([C@H]2CC[C@@H](NC(=O)C(C)(C)O)CC2)s1` [Example 312, N-((1s,4s)-4-(5-(6-(3-cyanopyrrolo[1,2-b]pyridazin-7-yl)-4-(isopropylamino)pyridin-3-yl)-1,3,4-thiadiazol-2-yl)cyclohexyl)-2-hydroxy-2-methylpropanamide], 17.5 nM.
